Laboratory results: patent publication US9487553B2, “Boranophosphate analogues of cyclic nucleotides” (BIOLOG LIFE SCIENCE INSTITUTE FORSCHUNGSLABOR UND …, priority 2011, dated 2016)

Assays:
Type in all cases: biochemical
[1] = target: protein kinase A type II alpha holoenzyme (Homo sapiens, UniProt P13861); assay: Photometric (Cook) assay with protein kinase A type II alpha holoenzyme; conditions: for effect on protein kinase A type II alpha holoenzyme: photometric assay
Source text: In another similar experiment the properties of Rp- and Sp-8-Br-cAMPB towards protein kinase A type II a were investigated in the photometric assay (Cook, P. F., Neville, M. E., Jr., Vrana, K. E., Hartl, F. T. and Roskoski, R., Jr., Biochemistry 21, 5794-5799 (1982))

protein kinase G I α = target: T1, protein kinase G I α (Homo sapiens, UniProt Q13976); assay: Protein kinase G I alpha activation, phosphotransferyl assay; conditions: 10 nM, 100 nM and 1 μM
T1 sequence (Q13976 1-671): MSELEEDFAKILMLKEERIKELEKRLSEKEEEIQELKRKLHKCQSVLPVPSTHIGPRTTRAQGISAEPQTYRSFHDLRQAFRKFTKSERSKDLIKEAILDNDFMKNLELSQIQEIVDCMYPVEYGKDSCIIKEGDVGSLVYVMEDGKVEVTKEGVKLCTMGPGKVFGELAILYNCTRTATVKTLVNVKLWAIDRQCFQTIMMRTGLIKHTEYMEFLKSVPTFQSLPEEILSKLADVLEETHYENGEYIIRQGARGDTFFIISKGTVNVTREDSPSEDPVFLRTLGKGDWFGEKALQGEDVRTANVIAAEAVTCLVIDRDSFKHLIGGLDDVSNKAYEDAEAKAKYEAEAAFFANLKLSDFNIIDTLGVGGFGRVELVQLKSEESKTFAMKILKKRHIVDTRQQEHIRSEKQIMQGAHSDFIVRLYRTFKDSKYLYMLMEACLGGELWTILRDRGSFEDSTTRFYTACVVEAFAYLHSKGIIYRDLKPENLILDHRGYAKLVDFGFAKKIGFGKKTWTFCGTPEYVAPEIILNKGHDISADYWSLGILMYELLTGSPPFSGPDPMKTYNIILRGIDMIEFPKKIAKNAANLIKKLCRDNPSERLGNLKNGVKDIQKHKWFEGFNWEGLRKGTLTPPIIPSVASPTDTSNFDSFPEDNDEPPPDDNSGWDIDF
Source text: Next, the activity profile of some cyclic boranophosphates disclosed in this invention has also been investigated on protein kinase G I α (FIGS. 8 and 9). Potential activatory potential towards the enzyme has been determined by a standard phosphotransferyl assay protocol according to Dostmann et al. (Dostmann, W. R.; Nickl, C.; Thiel, S.; Tsigelny, I.; Frank, R.; and Tegge, W. J., Pharmacol. Ther., 82, 373-387 (1999). FIG. 8 depicts the activity (μmol×min^−1×mg^−1) overview of six different cyclic boranophosphate analogues with protein kinase G type I at 10 nM, 100 nM and 1 μM. BLG-9108: […]; BLG-9110: Sp-8-Br-cAMPB; BLG-9111: Rp-8-Br-cAMPB; BLG-9112: Sp-8-Br-cGMPB; BLG-9113: Rp-8-Br-cGMPB; control: cyclic GMP.

[2] = target: protein kinase A type I alpha holoenzyme (Homo sapiens, UniProt P10644); assay: Standard photometric (Cook) assay with protein kinase A type I alpha holoenzyme; conditions: holoenzyme RIα
Source text: In a first experiment, the biological activity of the Rp- and Sp-isomer of 8-bromoadenosine-3′,5′-cyclic boranophosphate (examples 1 and 2) has been tested with the holoenzyme of protein kinase A type I alpha (FIGS. 3 and 4) using a standard photometric assay (Cook, P. F.; Neville, M. E., Jr.; Vrana, K. E.; Hartl, F. T. and Roskoski, R., Jr., Biochemistry 21, 5794-5799 (1982)).
As a control, two boranophosphate analogues with a 2′-O-methyl modification (Rp-2′-O-Me-cAMPB and Sp-2′-O-Me-cAMPB, examples 7 & 8) have been tested by the same type of assay with protein kinase A type I alpha as well.
FIG. 5 depicts the activity overview of four different cyclic boranophosphate analogues with protein kinase A type I alpha holoenzyme. 9108: Sp-2′-O-Me-cAMPB; 9109: Rp-2′-O-Me-cAMPB; 9110: Sp-8-Br-cAMPB; 9111: Rp-8-Br-cAMPB; controls: B 001: Rp-8-Br-cAMPS. Control: cAMP. “Cook Assay” with Holoenzyme RIα.

protein kinase A type II alpha holoenzyme, sequence (P13861 whole entry): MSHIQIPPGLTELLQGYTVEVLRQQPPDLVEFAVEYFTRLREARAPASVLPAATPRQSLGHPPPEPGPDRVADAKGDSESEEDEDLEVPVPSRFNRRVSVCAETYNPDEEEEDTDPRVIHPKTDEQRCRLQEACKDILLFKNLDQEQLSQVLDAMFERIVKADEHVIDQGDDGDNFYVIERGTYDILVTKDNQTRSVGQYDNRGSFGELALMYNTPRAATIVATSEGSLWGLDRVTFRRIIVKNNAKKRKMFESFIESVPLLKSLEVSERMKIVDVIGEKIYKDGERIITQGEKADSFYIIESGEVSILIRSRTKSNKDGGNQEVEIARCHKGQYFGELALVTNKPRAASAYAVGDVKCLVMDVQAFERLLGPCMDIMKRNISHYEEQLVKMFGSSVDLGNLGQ
protein kinase A type I alpha holoenzyme, sequence (P10644 whole entry): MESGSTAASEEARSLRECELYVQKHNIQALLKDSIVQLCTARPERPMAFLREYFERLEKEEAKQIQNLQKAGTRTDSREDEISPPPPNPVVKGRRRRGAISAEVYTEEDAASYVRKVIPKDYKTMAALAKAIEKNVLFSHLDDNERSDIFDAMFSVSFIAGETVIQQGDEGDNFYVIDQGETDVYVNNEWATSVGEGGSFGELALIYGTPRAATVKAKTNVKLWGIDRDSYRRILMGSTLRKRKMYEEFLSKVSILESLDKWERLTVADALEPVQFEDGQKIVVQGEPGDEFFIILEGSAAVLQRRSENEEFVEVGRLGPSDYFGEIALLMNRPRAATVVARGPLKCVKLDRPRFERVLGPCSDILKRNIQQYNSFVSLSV

effect on protein kinase A type II alpha holoenzyme [1] | effect on protein kinase A type I alpha holoenzyme [2] | preference for protein kinase A type I over type II, factor ([1]; antagonist) | Substance | modulation of protein kinase G (protein kinase G I α)
even higher activation potential | agonistic property |  | 8-Bromoadenosine-3′,5′-cyclic boranophosphate, Rp-isomer [Rp-8-Br-cAMPB] | as potent or even better as guanine related compounds
only moderately antagonistic | inhibitory potential | 14 | 8-Bromoadenosine-3′,5′-cyclic boranophosphate, Sp-isomer [Sp-8-Br-cAMPB] | as potent or even better as guanine related compounds
